Measurements as given in patent publication US20070123473A1, “Glycosylated steroid derivatives with anti-migratory activity” (priority 2003, published 2007).

Columns and labels:
Hs578T (breast cancer) = assay: Cell migration of cancer cells (phase-contrast videomicroscopy), Hs578T; assay type: cell-based, human
Protocol: (§1) Cells of different types of cancer, i.e. U-373 MG (Glioma), Hs578T (breast cancer), PC-3 (prostate cancer) and A549 (lung cancer) were seeded on culture flask 48 hours before the migration experiment. On the test day, cells were treated with or without compounds UBS3270, UBS3285, UBS3327, UBS3328, UBS3501, UBS3585, UBS3597, UBS3976, UBS4066, UBS4095, UBS4104, UBS4109, UBS4209 and UBS4373 in closed Falcon dishes containing a buffered medium at a controlled temperature (37.0±0.1° C.) for 12 or 24 hours. The compounds were administered at 4 concentrations (10^−7 M to 10^−10 M). Migration of the cells was observed by means of a CCD-camera mounted on a phase-contrast microscope. A statistical analyse of the migration, with the non-parametric Mann-Whitney test, was established for 25%-50% of the most motile cells and for the entire cell population for UBS3270, UBS3285, UBS3327, UBS3328, UBS3501, UBS3585, UBS3597, UBS3976, UBS4066, UBS4095, UBS4104, UBS4109, UBS4209 and UBS4373 compounds. The table C below illustrates the anti-migratory effect of the compound according to the invention.

U-373 MG (Glioma) = assay: Cell migration of cancer cells (phase-contrast videomicroscopy), U-373 MG; assay type: cell-based, human
Protocol: as §1

PC-3 (prostate cancer) = assay: Cell migration of cancer cells (phase-contrast videomicroscopy), PC-3; assay type: cell-based, human
Protocol: as §1

P388 lymphoma = assay: Survival of P388 lymphoma bearing mice (T/C index); assay type: in vivo, mouse; details: 40 mg/kg subcutaneously, T/C of 130% or more = significant prolongation of survival
Protocol: The compounds UBS3328 and UBS3501 were evaluated on the aggressive P388 lymphoma cancer model. When leukemic P388 cells of lymphoblastic origin (Pihl A. UICC Study Group on chemosensitivity testing of human tumors. Problems-applications-future prospects. Int J Cancer. 1986 Jan. 15; 37(1):1-5) are grafted subcutaneously, they develop as very biologically aggressive anaplastic lymphomas markedly metastasizing first into the liver, then in the lungs and occasionally in kidneys. The mice suffering from P388 lymphomas usually die about 2 weeks after the cell injection. The P388 lymphoma was thus used as a model representative of a clinically terminal state of cancer.
The model was performed with 5 mice per group and the compounds UBS3328 and UBS3501 were injected subcutaneously at 40 mg/kg for 4 days, two times per day, for the two first weeks post graft followed by one administration everyday, one times per day for the third week post graft.
The effect of the compounds UBS3328 and UBS3501 on the survival of the P388 cancer bearing mice is evaluated following the analysis of the T/C index. T/C index is calculated by dividing the median day of death in a treated group T by the median day of death in the control group C. T/C values of 130% or more (i.e. a prolongation of mice survival of 30% or more) indicate a significant prolongation of survival.

A549 (lung cancer) = assay: Cell migration of cancer cells (phase-contrast videomicroscopy), A549; assay type: cell-based, human; details: 25% of most motile cells
Protocol: as §1

[1] = 24 hours, 25% of most motile cells, 10^−9 M
[2] = 12 hours, entire cell population, 10^−9 M

## COc1ccc(OC)c(C2CC3C4CC=C5CC(OC6O[C@H](CO)[C@@H](O)[C@H](O)[C@H]6NC(C)=O)CCC5(C)C4CCC3(C)C2C(C)=O)c1 (some centres unmarked) [UBS3585]
Hs578T (breast cancer); 24 hours, entire cell population, 10^−7 M
  Max. effects (anti-migratory effect): −27%/p < 0.001

## COc1ccc(OC)c(C2CC3C4CC=C5CC(OC6O[C@H](CO)[C@@H](O[C@H]7O[C@H](CO)[C@@H](O)[C@H](O)[C@H]7O)[C@H](O)[C@H]6O)CCC5(C)C4CCC3(C)C2C(C)=O)c1 (some centres unmarked) [UBS4095]
U-373 MG (Glioma); 24 hours, entire cell population, 10^−9 M
  Max. effects (anti-migratory effect): −27%/p < 0.001

## COc1ccc(OC)c(C2CC3C4CC=C5CC(OC6O[C@@H](C)[C@@H](O)[C@@H](O)[C@@H]6O)CCC5(C)C4CCC3(C)C2C(C)=O)c1 (some centres unmarked) [UBS3501]
U-373 MG (Glioma); 24 hours, 25% of most motile cells, 10^−8 M
  Max. effects (anti-migratory effect): −38%/p = 0.01
PC-3 (prostate cancer); 12 hours, 25% of most motile cells, 10^−7 M
  Max. effects (anti-migratory effect): −23%/p < 0.001
P388 lymphoma
  T/C index (median day of death treated / control): 141%

## COc1ccc(OC)c(C2CC3C4CC=C5CC(OC6O[C@H](CO)[C@@H](O[C@@H]7O[C@H](CO)[C@H](O)[C@H](O)[C@H]7O)[C@H](O)[C@H]6O)CCC5(C)C4CCC3(C)C2C(C)OC2O[C@H](CO)[C@@H](O[C@@H]3O[C@H](CO)[C@H](O)[C@H](O)[C@H]3O)[C@H](O)[C@H]2O)c1 (some centres unmarked) [UBS4209]
Hs578T (breast cancer); 24 hours, 25% of most motile cells, 10^−7 M
  Max. effects (anti-migratory effect): −26%/p < 0.001
A549 (lung cancer); 12 hours, 10^−8 M
  Max. effects (anti-migratory effect): −26%/p < 0.001

## COc1ccc(OC)c(C2CC3C4CC=C5CC(OC6O[C@H](CO)[C@H](O)[C@H](O)[C@H]6NC(C)=O)CCC5(C)C4CCC3(C)C2C(C)=O)c1 (some centres unmarked) [UBS3597]
PC-3 (prostate cancer); [1]
  Max. effects (anti-migratory effect): −31%/p < 0.001

## COc1ccc(OC)c(C2CC3C4CC=C5CC(OC6O[C@H](CO)[C@@H](O[C@@H]7O[C@H](CO)[C@H](O)[C@H](O)[C@H]7O)[C@H](O)[C@H]6O)CCC5(C)C4CCC3(C)C2C(C)=O)c1 (some centres unmarked) [UBS3976]
U-373 MG (Glioma); 24 hours, 25% of most motile cells, 10^−10 M
  Max. effects (anti-migratory effect): −46%/p < 0.001
PC-3 (prostate cancer); 12 hours, 25% of most motile cells, 10^−8 M
  Max. effects (anti-migratory effect): −51%/p < 0.001

## COc1ccc(OC)c(C2CC3C4CC=C5CC(O[C@@H]6O[C@H](CO)[C@@H](O)[C@H](O)[C@H]6NC(C)=O)CCC5(C)C4CCC3(C)C2C(C)=O)c1 (some centres unmarked) [UBS4104]
U-373 MG (Glioma); 12 hours, 50% of most motile cells, 10^−10 M
  Max. effects (anti-migratory effect): −23%/p < 0.001
A549 (lung cancer); 24 hours, 10^−10 M
  Max. effects (anti-migratory effect): −46%/p < 0.001

## COc1ccc(OC)c(C2CC3C4CC=C5CC(OC6O[C@@H](C)[C@@H](O)[C@@H](O)[C@@H]6O)CCC5(C)C4CCC3(C)C2C(C)OC2O[C@@H](C)[C@@H](O)[C@@H](O)[C@@H]2O)c1 (some centres unmarked) [UBS4066]
Hs578T (breast cancer); 12 hours, 25% of most motile cells, 10^−9 M
  Max. effects (anti-migratory effect): −29%/p < 0.001
PC-3 (prostate cancer); [1]
  Max. effects (anti-migratory effect): −45%/p < 0.001

## COc1ccc(OC)c(C2CC3C4CC=C5CC(OC6O[C@H](CO[C@H]7O[C@H](CO)[C@@H](O)[C@H](O)[C@H]7O)[C@@H](O)[C@H](O)[C@H]6O)CCC5(C)C4CCC3(C)C2C(C)OC2O[C@H](CO[C@H]3O[C@H](CO)[C@@H](O)[C@H](O)[C@H]3O)[C@@H](O)[C@H](O)[C@H]2O)c1 (some centres unmarked) [UBS4373]
U-373 MG (Glioma); [2]
  Max. effects (anti-migratory effect): −24%/p < 0.001

## COc1ccc(OC)c(C2CC3C4CC=C5CC(OC6O[C@H](CO)[C@@H](O)[C@H](O)[C@@H]6O)CCC5(C)C4CCC3(C)C2C(C)=O)c1 (some centres unmarked) [UBS3270]
Hs578T (breast cancer); 24 hours, 50% of most motile cells, 10^−7 M
  Max. effects (anti-migratory effect): −27%/p < 0.001

## COc1ccc(OC)c(C2CC3C4CC=C5CC(OC6O[C@H](CO)[C@@H](O[C@@H]7O[C@H](CO)[C@@H](O)[C@H](O)[C@H]7O)[C@H](O)[C@H]6O)CCC5(C)C4CCC3(C)C2C(C)OC2O[C@H](CO)[C@@H](O[C@@H]3O[C@H](CO)[C@@H](O)[C@H](O)[C@H]3O)[C@H](O)[C@H]2O)c1 (some centres unmarked) [UBS4109]
PC-3 (prostate cancer); [2]
  Max. effects (anti-migratory effect): −34%/p < 0.001

## COc1ccc(OC)c(C2CC3C4CC=C5CC(OC6O[C@H](CO[C@H]7O[C@H](CO)[C@@H](O)[C@H](O)[C@H]7O)[C@@H](O)[C@H](O)[C@H]6O)CCC5(C)C4CCC3(C)C2C(C)=O)c1 (some centres unmarked) [UBS3328]
U-373 MG (Glioma); 12 hours, entire cell population, 10^−10 M
  Max. effects (anti-migratory effect): −27%/p < 0.001
A549 (lung cancer); 24 hours, 10^−7 M
  Max. effects (anti-migratory effect): −40%/p < 0.001
P388 lymphoma
  T/C index (median day of death treated / control): 135%
